A word on the IC50: it is the point on the concentration scale where inhibition reaches its midpoint. One may read the inhibition as the change of the read-out against control, counted positive when it falls.

Results on 6 compounds are retold here after article PMC2752819 (Assay and drug development technologies, 2008).

One assay concerns the target T1, MKP-1 (Homo sapiens, UniProt P28562).
T1 sequence (P28562 1-367): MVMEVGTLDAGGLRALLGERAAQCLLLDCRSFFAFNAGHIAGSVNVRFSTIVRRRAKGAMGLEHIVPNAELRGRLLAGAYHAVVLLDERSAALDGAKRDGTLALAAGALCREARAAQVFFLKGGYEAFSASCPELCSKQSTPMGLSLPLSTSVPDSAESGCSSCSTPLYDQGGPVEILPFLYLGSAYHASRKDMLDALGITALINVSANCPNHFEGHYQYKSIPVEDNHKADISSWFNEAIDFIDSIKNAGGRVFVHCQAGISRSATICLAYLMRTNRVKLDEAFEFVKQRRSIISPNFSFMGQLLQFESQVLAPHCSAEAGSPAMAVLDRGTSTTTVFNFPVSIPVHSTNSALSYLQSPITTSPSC
Put plainly: biochemical.

The conditions of assay [1]: cited from earlier work.
Setting [2] is: MKP-1 + 1 mM DTT + catalase IC50, 1 mM DTT + 100 U of catalase.
[3] abbreviates: MKP-1 + 25 mM DTT IC50, 25 mM DTT.
Setting [4] is: read-out: MKP-1 + 1 mM DTT % inhibition at 50 μM.
Where [5] appears, read: read-out: MKP-1 + 1 mM DTT + catalase % inhibition at 50 μM.
Setting [6] is: read-out: MKP-1 + 25 mM DTT % inhibition at 50 μM.

Where two headings read alike, the source gives them in different places.

As to `Cn1ncnc2c(=O)n(C)c(=O)nc1-2` [compound 4251194, 1,6-dimethylpyrimido[5,6-e][1,2,4]triazine-5,7-dione], the IC50 was more than 50 µM on MKP-1 (setting [2]) and 5.68 µM on MKP-1 (setting [3]). Besides, the results for the inhibition at 50 µM on MKP-1 (setting [4]), at MKP-1 (setting [5]) and at MKP-1 (setting [6]) were 94.4%, -27.2% and 98%, respectively.
As for `CCCCn1c(NC(=O)c2ccccc2)c(C#N)c2nc3ccccc3nc21` [compound 3712327, N-(1-butyl-3-cyanopyrrolo[5,4-b]quinoxalin-2-yl)benzamide], on MKP-1 (setting [3]), the IC50 was more than 50 µM. The inhibition at 50 µM on MKP-1 (setting [4]) was 79.9%; at MKP-1 (setting [5]) it was 69.9%; on MKP-1 (setting [6]), -5.25%.
For `CCn1nc(-c2cccs2)nc2c(=O)n(C)c(=O)nc1-2` [compound 850758, 1-ethyl-6-methyl-3-thiophen-2-ylpyrimido[5,6-e][1,2,4]triazine-5,7-dione], the IC50 on MKP-1 (setting [2]) was more than 50 µM; at MKP-1 (setting [3]), 4.43 µM. For the same compound, the inhibition at 50 µM is 94.4% at MKP-1 (setting [4]), -92.2% on MKP-1 (setting [5]) and 98.2% on MKP-1 (setting [6]).
On the same counts, the results for `N#Cc1c(N)sc(=S)c2c1CCN(Cc1ccccc1)C2` [compound 845964, 3-amino-7-(phenylmethyl)-1-sulfanylidene-6,8-dihydro-5H-thiopyrano[5,4-c]pyridine-4-carbonitrile] are more than 50 µM, more than 50 µM, 95.2%, 47.7% and 35.7%.
As for `O=C1C(=O)c2ccccc2-c2ccccc21` [9,10-phenanthrenedione], in assay [1], the “H2O2 generation in the presence of DTT” value is recorded as “generate significant amounts of H2O2”.
Consider `CCn1nc(-c2ccccc2)nc2c(=O)n(C)c(=O)nc1-2` [compound 845167, 1-ethyl-6-methyl-3-phenylpyrimido[5,6-e][1,2,4]triazine-5,7-dione], for which the IC50 at MKP-1 (setting [2]) was more than 50 µM; at MKP-1 (setting [3]), 4.9 µM. Moreover, the inhibition at 50 µM on MKP-1 (setting [4]) was 95.6%; at MKP-1 (setting [5]) it was -66.3%; at MKP-1 (setting [6]), 96.2%.
